Assay results: PubChem BioAssay (NCI)
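Tested at 5 concentrations; 48 h exposure; 96-well plates; endpoints linearly interpolated, else capped at highest concentration. GI50 marks 50% less growth. The concentration for full growth arrest is given as TGI.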

Experiments:
Assay in all cases: inhibition of tumour cell growth, NCI panel, 48 h
[1] = test system: OVCAR-8 ovarian
[2] = test system: SK-MEL-28 melanoma
[3] = test system: OVCAR-3 ovarian
[4] = test system: SR leukemia
[5] = test system: PC-3 prostate
[6] = test system: SF-295 CNS
[7] = test system: 786-0 renal
[8] = test system: MCF7 breast
[9] = test system: HT29 colon
[10] = test system: LOX IMVI melanoma

With CCN(c1cc(-c2ccc(CN3CCOCC3)cc2)cc(C(=O)NCc2c(C)cc(C)[nH]c2=O)c1C)C1CCOCC1 the GI50 [1] was 37.9 µM, the TGI [1] was > 100 µM and the GI50 [2] was 20.5 µM. For the same compound, the TGI [2] was 47.7 µM, the GI50 [3] was 25 µM and the TGI [3] was > 54.6 µM. The GI50 [4] was 21.7 µM, the TGI [4] was 58.2 µM and the GI50 [5] was 32 µM. For the same compound, the TGI [5] was > 100 µM, the GI50 [6] was 26200 nM and the TGI [6] was 71.3 µM. For the same compound, the GI50 [7] was 17.1 µM, the TGI [7] was 40.7 µM and the GI50 [8] was 24.2 µM. The TGI [8] was > 100 µM, the GI50 [9] was 15.7 µM and the TGI [9] was 35.6 µM. For the same compound, the GI50 [10] was 15.9 µM and the TGI [10] was 30.3 µM.

In the case of Cn1cc(-c2ccc3nnc(Sc4ccc5ncccc5c4)n3n2)cn1, the GI50 [1] is reported as 66.7 µM, the TGI [1] is reported as > 100 µM and the GI50 [2] is reported as > 100 µM. For the same compound, the TGI [2] was > 100 µM, the GI50 [3] was > 91.4 µM and the TGI [3] was > 100 µM. The GI50 [4] was 68.1 µM, the TGI [4] was > 100 µM and the GI50 [5] was > 92.7 µM. For the same compound, the TGI [5] was > 100 µM, the GI50 [6] was 2060 nM and the TGI [6] was > 100 µM. For the same compound, the GI50 [7] was > 100 µM, the TGI [7] was > 100 µM and the GI50 [8] was 97.5 µM. The TGI [8] was > 100 µM, the GI50 [9] was > 100 µM and the TGI [9] was > 100 µM. The GI50 [10] was 57.8 µM and the TGI [10] was > 100 µM.

COC(=O)C1C(O)C(C)C(O)C(C)C=C(C)C2=C3C(=C(C)C(=O)c4c(O)c(c(C)c(OC(C)=O)c43)NC(=O)C(C)=C/C=C\C(C)C(O)C(C)C1O)OCO2 (stereo not given) was tested, and the TGI [1] was > 100 µM, the TGI [2] was 47.3 µM and the TGI [3] was 53 µM. The TGI [4] was 47.6 µM, the TGI [5] was > 100 µM and the TGI [6] was > 100 µM. The TGI [7] was > 100 µM, the TGI [8] was 58.7 µM and the TGI [9] was 70.2 µM. For the same compound, the TGI [10] was 43 µM.

CN(C)CCSS(=O)(=O)O was tested, and the TGI [1] was > 100 µM, the TGI [2] was > 100 µM and the TGI [3] was > 100 µM. For the same compound, the TGI [4] was > 100 µM, the TGI [5] was > 100 µM and the TGI [6] was 94.4 µM. For the same compound, the TGI [7] was > 100 µM, the TGI [8] was > 100 µM and the TGI [9] was > 100 µM. The TGI [10] was > 100 µM.

For Cc1nc(Nc2cccnc2)sc1C(=O)/C=C/c1ccc(Cl)cc1, the GI50 [1] was 3.84 µM, the TGI [1] was > 100 µM and the GI50 [2] was 3.04 µM. For the same compound, the TGI [2] was 14.7 µM, the GI50 [3] was 3.27 µM and the TGI [3] was 16.2 µM. For the same compound, the GI50 [4] was 2.3 µM, the TGI [4] was > 100 µM and the GI50 [5] was 3.27 µM. It also gave a TGI [5] of 12 µM, a GI50 [6] of 2790 nM and a TGI [6] of 19.1 µM. For the same compound, the GI50 [7] was 1.95 µM, the TGI [7] was 6.48 µM and the GI50 [8] was 1.92 µM. For the same compound, the TGI [8] was 10.7 µM, the GI50 [9] was 2.85 µM and the TGI [9] was 9.43 µM. For the same compound, the GI50 [10] was 1.83 µM and the TGI [10] was 3.75 µM.

COC(=O)COc1ccc(/C=C2/N=C(c3ccccc3)N(c3c(C)n(C)n(-c4ccccc4)c3=O)C2=O)cc1 was tested, and the GI50 [1] was 18.8 µM, the TGI [1] was 33.7 µM and the GI50 [2] was 16.8 µM. It also gave a TGI [2] of 30.9 µM, a GI50 [3] of 16.6 µM and a TGI [3] of 30.7 µM. For the same compound, the GI50 [4] was 23.1 µM, the TGI [4] was 69.3 µM and the GI50 [5] was 19.6 µM. For the same compound, the TGI [5] was 37.9 µM, the GI50 [6] was 33500 nM and the TGI [6] was > 100 µM. For the same compound, the GI50 [7] was 19.7 µM, the TGI [7] was 37 µM and the GI50 [8] was 14.1 µM. The TGI [8] was 32.9 µM, the GI50 [9] was 18.3 µM and the TGI [9] was 35.7 µM. It also gave a GI50 [10] of 18 µM and a TGI [10] of 32.8 µM.

O=C([O][Sn]([O]C(=O)c1ccccn1)([c]1ccccc1)[c]1ccccc1)c1ccccn1 showed a GI50 [1] of 11.3 µM, a TGI [1] of 24 µM and a GI50 [2] of 3.4 µM. The TGI [2] was 13.3 µM, the GI50 [3] was 1.62 µM and the TGI [3] was 2.98 µM. For the same compound, the GI50 [4] was 1.22 µM, the TGI [4] was 11.3 µM and the GI50 [5] was 11.8 µM. The TGI [5] was 25.6 µM, the GI50 [6] was 16100 nM and the TGI [6] was 31.9 µM. For the same compound, the GI50 [7] was 5.14 µM, the TGI [7] was 16.8 µM and the GI50 [8] was 2.67 µM. The TGI [8] was 13.4 µM, the GI50 [9] was 3.06 µM and the TGI [9] was 7.97 µM. The GI50 [10] was 1.4 µM and the TGI [10] was 2.7 µM.

Work on COc1ccc(-c2nc(-c3nc4ccc(F)cc4[nH]3)c3ccccn23)cc1 yielded a GI50 [1] of 3.76 µM, a TGI [1] of 23.4 µM and a GI50 [2] of 22.8 µM. For the same compound, the TGI [2] was > 100 µM, the GI50 [3] was 6.14 µM and the TGI [3] was 27.1 µM. The GI50 [4] was 6.63 µM, the TGI [4] was > 100 µM and the GI50 [5] was 6.14 µM. For the same compound, the TGI [5] was 46.9 µM, the GI50 [7] was 8.82 µM and the TGI [7] was 61.5 µM. The GI50 [8] was 6.15 µM, the TGI [8] was > 100 µM and the GI50 [9] was 7.13 µM. The TGI [9] was > 100 µM, the GI50 [10] was 10.8 µM and the TGI [10] was > 100 µM.

COc1cc2c(cc1OC)C(=O)/C(=C/c1cc(-c3ccc4c(c3)OCO4)n[nH]1)C2 was tested, and the GI50 [1] was 1.57 µM, the TGI [1] was 3.05 µM and the GI50 [2] was 1.89 µM. It also gave a TGI [2] of 3.4 µM, a GI50 [3] of 1.41 µM and a TGI [3] of 2.8 µM. For the same compound, the GI50 [4] was 0.627 µM, the TGI [4] was 4.11 µM and the GI50 [5] was 1.29 µM. It also gave a TGI [5] of 2.92 µM, a GI50 [6] of 1640 nM and a TGI [6] of 3.26 µM. The GI50 [7] was 1.61 µM, the TGI [7] was 2.99 µM and the GI50 [8] was 0.339 µM. For the same compound, the TGI [8] was 1.42 µM, the GI50 [9] was 1.45 µM and the TGI [9] was 3.09 µM.

With O=C(Nn1c(-c2ccccc2)nc2ccccc2c1=O)c1ccccc1O the TGI [1] was > 100 µM, the TGI [2] was > 100 µM and the TGI [3] was > 100 µM. The TGI [4] was > 100 µM, the TGI [5] was > 100 µM and the TGI [6] was > 100 µM. For the same compound, the TGI [7] was > 100 µM, the TGI [8] was > 100 µM and the TGI [9] was > 100 µM. For the same compound, the TGI [10] was > 100 µM.

For Cc1c2c(c(C)c3c4c(oc13)CCCC4)C=NCC2, the TGI [1] was 23.1 µM, the TGI [2] was 35.7 µM and the TGI [3] was 31.5 µM. The TGI [4] was 23.4 µM, the TGI [6] was 31.7 µM and the TGI [7] was > 100 µM. The TGI [8] was 30.4 µM, the TGI [9] was 29 µM and the TGI [10] was 38.3 µM.

For COc1ccc(C(O)c2cc3c(N)c(C(=O)Nc4cccc(Cl)c4)sc3nc2C)cc1 (stereo not given), the GI50 [1] was 1.45 µM, the TGI [1] was > 47.8 µM and the GI50 [2] was 1.23 µM. For the same compound, the TGI [2] was 55 µM, the GI50 [3] was 0.843 µM and the TGI [3] was 2.34 µM. The GI50 [4] was 0.339 µM, the GI50 [5] was 1.56 µM and the TGI [5] was > 40.4 µM. The GI50 [6] was 1120 nM, the TGI [6] was > 22.7 µM and the GI50 [7] was 1.67 µM. The TGI [7] was > 39.6 µM, the GI50 [8] was 1.11 µM and the TGI [8] was > 67.2 µM. The GI50 [9] was 1.08 µM, the TGI [9] was > 33.4 µM and the GI50 [10] was 1.71 µM. For the same compound, the TGI [10] was > 40.7 µM.

In the case of Cc1nc2ccc(NC(=O)CCNC(=O)CCCc3ccc(CC(C(=O)O)C(=O)O)cc3)cc2s1, the GI50 [1] is reported as > 100 µM, the TGI [1] is reported as > 100 µM and the GI50 [2] is reported as > 100 µM. For the same compound, the TGI [2] was > 100 µM, the GI50 [3] was > 100 µM and the TGI [3] was > 100 µM. The GI50 [4] was > 100 µM, the TGI [4] was > 100 µM and the GI50 [5] was > 100 µM. For the same compound, the TGI [5] was > 100 µM, the GI50 [6] was > 100000 nM and the TGI [6] was > 100 µM. The GI50 [7] was > 100 µM, the TGI [7] was > 100 µM and the GI50 [8] was > 100 µM. The TGI [8] was > 100 µM, the GI50 [9] was > 100 µM and the TGI [9] was > 100 µM. The GI50 [10] was > 100 µM and the TGI [10] was > 100 µM.

For Cn1c(-c2ccc(/C=N/NC(=S)N/N=C/c3ccc(-c4c[n+]5ccsc5n4C)cc3)cc2)c[n+]2ccsc12, the TGI [1] was > 100 µM, the TGI [2] was > 100 µM and the TGI [4] was > 100 µM. For the same compound, the TGI [5] was > 100 µM, the TGI [6] was > 100 µM and the TGI [7] was > 100 µM. For the same compound, the TGI [8] was > 100 µM and the TGI [9] was > 100 µM.

COc1cc(NC(=O)CCSc2nc3ccc(C)cc3c(=O)n2Cc2ccccc2)cc(OC)c1OC was tested, and the GI50 [1] was 5.01 µM, the TGI [1] was > 100 µM and the GI50 [2] was 6.3 µM. The TGI [2] was > 100 µM, the GI50 [3] was 5.05 µM and the TGI [3] was > 100 µM. The GI50 [4] was > 100 µM, the TGI [4] was > 100 µM and the GI50 [5] was 5.39 µM. For the same compound, the TGI [5] was > 100 µM, the GI50 [7] was 4.17 µM and the TGI [7] was 19.2 µM. The GI50 [8] was 32 µM, the TGI [8] was > 100 µM and the GI50 [9] was > 100 µM. For the same compound, the TGI [9] was > 100 µM, the GI50 [10] was 6.4 µM and the TGI [10] was > 100 µM.
